In patent publication US11332459B2 (TEIJIN PHARMA LIMITED, priority 2017, dated 2022):
pIC50: −log10 of the molar value. Where a name gives a salt, the structure may show the parent alone.

The compounds below were run against T1, human TRPC6 (Homo sapiens, UniProt Q9Y210) (assay: TRPC6 calcium flux assay (FLIPR, OAG-stimulated calcium influx)). Conditions: HEK293 cells stably transfected with human TRPC6, read-out: hTRPC6 Potency.
T1 construct: expressed in transfected cells
T1 sequence (Q9Y210 1-931): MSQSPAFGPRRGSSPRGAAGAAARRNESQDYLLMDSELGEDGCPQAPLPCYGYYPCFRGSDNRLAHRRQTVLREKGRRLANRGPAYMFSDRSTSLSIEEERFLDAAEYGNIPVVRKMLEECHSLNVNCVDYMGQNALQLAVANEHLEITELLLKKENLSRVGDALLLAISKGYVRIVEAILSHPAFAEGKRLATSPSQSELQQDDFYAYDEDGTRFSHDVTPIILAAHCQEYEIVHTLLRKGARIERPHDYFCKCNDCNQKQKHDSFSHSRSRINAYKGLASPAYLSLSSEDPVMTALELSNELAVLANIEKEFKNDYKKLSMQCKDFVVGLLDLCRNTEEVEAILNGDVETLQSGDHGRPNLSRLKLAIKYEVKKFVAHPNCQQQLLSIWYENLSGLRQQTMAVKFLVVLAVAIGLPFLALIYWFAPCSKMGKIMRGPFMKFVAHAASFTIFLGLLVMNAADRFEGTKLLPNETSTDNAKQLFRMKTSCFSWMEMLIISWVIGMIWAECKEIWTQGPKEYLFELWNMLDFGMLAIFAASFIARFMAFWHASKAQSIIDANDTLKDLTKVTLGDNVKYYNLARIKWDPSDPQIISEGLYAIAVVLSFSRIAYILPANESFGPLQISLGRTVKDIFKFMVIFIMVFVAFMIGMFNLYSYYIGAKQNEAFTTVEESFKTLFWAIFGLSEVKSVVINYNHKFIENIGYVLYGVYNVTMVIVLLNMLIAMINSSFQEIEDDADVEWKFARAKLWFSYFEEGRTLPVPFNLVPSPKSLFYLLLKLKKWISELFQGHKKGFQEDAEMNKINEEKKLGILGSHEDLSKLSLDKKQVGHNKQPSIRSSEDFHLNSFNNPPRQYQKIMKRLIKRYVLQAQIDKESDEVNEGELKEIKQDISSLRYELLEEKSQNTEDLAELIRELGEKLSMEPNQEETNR
Format: cell-based
Outline: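 IC50 derived by plotting background-corrected peak fluorescence (180 s window, normalized to OAG-triggered signal vs buffer) against dose. Stable human TRPC6 HEK293 line was dye-loaded, exposed to compound 25 min, then challenged with 50 uM final OAG in 2 mM Ca2+ HEPES buffer pH 7.2, 0.5% DMSO.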

Row | Compound | pIC50
1 | C[C@@H](c1ccc(C#N)cn1)n1c(N2CC[C@@H]3OCCN[C@H]3C2)nc2cc(F)cc(F)c21 [Example 273, 6-((1S)-1-(5,7-difluoro-2-((4aS,8aS)-hexahydro-2H-pyrido[4,3-b][1,4]oxazin-6(5H)-yl)-1H-benzimidazol-1-yl)ethyl)-3-pyridinecarbonitrile] | 7.86
2 | NC(=O)c1ccc(Cn2c(N3CC[C@@H](F)[C@H](N)C3)nc3ccccc32)nc1 [Example 436, 6-((2-((3R,4R)-3-amino-4-fluoropiperidin-1-yl)-1H-benzo[d]imidazol-1-yl)methyl)nicotinamide] | 7.28
3 | C[C@@H](c1ccc(Cl)cn1)n1c(N2CC[C@@H](F)[C@H](N)C2)nc2cc(Cl)ccc21 [Example 220, (3R,4R)-1-(5-chloro-1-((S)-1-(5-chloropyridin-2-yl)ethyl)-1H-benzo[d]imidazol-2-yl)-4-fluoropiperidin-3-amine hydrochloride] | 9.01
4 | N#Cc1ccc(Cl)cc1Cn1c(N2CC[C@@H](F)[C@H](N)C2)nc2cc(F)c(F)cc21 [Example 347, 2-((2-((3R,4R)-3-amino-4-fluoro-1-piperidinyl)-5,6-difluoro-1H-benzimidazol-1-yl)methyl)-4-chlorobenzonitrile] | 8.97
5 | N#Cc1ccc(Cn2c(N3C[C@H]4C[C@@]4(CN)C3)nc3ccccc32)cc1 [Example 184, 4-((2-((1R,5S)-1-(aminomethyl)-3-azabicyclo[3.1.0]hexan-3-yl)-1H-benzo[d]imidazol-1-yl)methyl)benzonitrile] | 6.84
6 | N[C@@H]1CN(c2nc3c(F)cc(F)cc3n2Cc2ccc(Cl)cn2)CCC1(F)F [Example 230, (R)-1-(1-((5-chloropyridin-2-yl)methyl)-4,6-difluoro-1H-benzo[d]imidazol-2-yl)-4,4-difluoropiperidin-3-amine hydrochloride] | 9.31
7 | N[C@@H]1CN(c2nc3cc(F)c(F)cc3n2Cc2ccccc2C(F)(F)F)CC[C@H]1F [Example 352, (3R,4R)-1-(5,6-difluoro-1-(2-(trifluoromethyl)benzyl)-1H-benzimidazol-2-yl)-4-fluoro-3-piperidinamine] | 6.48
8 | C[C@H](c1ccccc1Cl)n1c(N2CC[C@@H](F)[C@H](N)C2)nc2cc(F)c(F)cc21 [Example 324, (3R,4R)-1-(1-((1R)-1-(2-chlorophenyl)ethyl)-5,6-difluoro-1H-benzimidazol-2-yl)-4-fluoro-3-piperidinamine] | < 5.43
9 | N[C@@H]1CN(c2nc3cc(F)c(F)cc3n2Cc2ccc(Cl)cn2)CC[C@H]1F [Example 227, (3R,4R)-1-(1-((5-chloropyridin-2-yl)methyl)-5,6-difluoro-1H-benzo[d]imidazol-2-yl)-4-fluoropiperidin-3-amine hydrochloride] | 9.48
10 | N#Cc1ccc(Cn2c(N3C[C@@H]4NCCO[C@H]4C3)nc3ccccc32)nc1 [Example 101, 6-((2-((4aS,7aS)-hexahydropyrrolo[3,4-b][1,4]oxazin-6(2H)-yl)-1H-benzo[d]imidazol-1-yl)methyl)nicotinonitrile] | < 5.43
11 | COc1cnc(Cn2c(N3CC[C@@H](F)[C@H](N)C3)nc3ccc(C#N)cc32)nc1 [Example 242, 2-((3R,4R)-3-amino-4-fluoropiperidin-1-yl)-1-((5-methoxypyrimidin-2-yl)methyl)-1H-benzo[d]imidazole-6-carbonitrile hydrochloride] | 7.13
12 | COc1cc(Cl)ccc1Cn1c(N2CC[C@@H](F)[C@H](N)C2)nc2cc(F)c(F)cc21 [Example 350, (3R,4R)-1-(1-(4-chloro-2-methoxybenzyl)-5,6-difluoro-1H-benzimidazol-2-yl)-4-fluoro-3-piperidinamine] | 6.45
13 | N#Cc1ccc(Cn2c(N3CC[C@@H](F)[C@H](N)C3)nc3ccc(C#N)cc32)cc1 [Example 158, 2-((3R,4R)-3-amino-4-fluoro-1-piperidinyl)-1-(4-cyanobenzyl)-1H-benzimidazole-6-carbonitrile] | 8.33
14 | N#Cc1ccc(Cn2c(N3CCC[C@H](N)C3)nc3cc(Cl)ccc32)cc1 [Example 422, (S)-4-((2-(3-aminopiperidin-1-yl)-5-chloro-1H-benzo[d]imidazol-1-yl)methyl)benzonitrile] | 8.63
15 | N[C@@H]1CN(c2nc3ccc(F)cc3n2Cc2ncc(Cl)cn2)CC[C@H]1O [Example 205, (3R,4R)-3-amino-1-(1-((5-chloropyrimidin-2-yl)methyl)-6-fluoro-1H-benzo[d]imidazol-2-yl)piperidin-4-ol] | 8.52
16 | N#Cc1ccc(Cn2c(N3CC[C@@H](F)[C@H](N)C3)nc3c(Cl)cccc32)cc1 [Example 408, 4-((2-((3R,4R)-3-amino-4-fluoropiperidin-1-yl)-4-chloro-1H-benzo[d]imidazol-1-yl)methyl)benzonitrile] | 9.03
17 | N#Cc1ccc(Cn2c(N3CCC[C@H](N)C3)nc3cc(F)ccc32)nc1 [Example 46, (S)-6-((2-(3-aminopiperidin-1-yl)-5-fluoro-1H-benzo[d]imidazol-1-yl)methyl)nicotinonitrile hydrochloride] | 8.75
18 | N#Cc1ccc(Cn2c(N3CC[C@@H](CN)C3)nc3ccccc32)cc1 [Example 178, (S)-4-((2-(3-(aminomethyl)pyrrolidin-1-yl)-1H-benzo[d]imidazol-1-yl)methyl)benzonitrile] | 7.33
19 | N#Cc1ccc(Cn2c(N3CCC[C@@]4(CCN4)C3)nc3ccccc32)nc1 [Example 27, (R)-6-((2-(1,6-diazaspiro[3.5]nonan-6-yl)-1H-benzo[d]imidazol-1-yl)methyl)nicotinointrile] | 7.13
20 | C[C@@H](c1ccc(C#N)cc1)n1c(N2CC[C@@H](F)[C@H](N)C2)nc2ccccc21 [Example 320, 4-((S)-1-(2-((3R,4R)-3-amino-4-fluoropiperidin-1-yl)-1H-benzo[d]imidazol-1-yl)ethyl)benzonitrile hydrochloride] | 7.92

Other lines, results leading:

Row | pIC50 | Compound
21 | 5.84 | Cc1nnc(Cn2c(N3CC[C@@H](F)[C@H](N)C3)nc3cc(F)cnc32)s1 [Example 590, (3R,4R)-4-fluoro-1-(6-fluoro-3-((5-methyl-1,3,4-thiadiazol-2-yl)methyl)-3H-imidazo[4,5-b]pyridin-2-yl)piperidin-3-amine]
22 | 6.05 | C[C@@H](CC#N)NC(=O)Cn1c(N2CC[C@@H](F)[C@H](N)C2)nc2ccc(F)cc21 [Example 669, 2-(2-((3R,4R)-3-amino-4-fluoropiperidin-1-yl)-6-fluoro-1H-benzo[d]imidazol-1-yl)-N-((S)-1-cyanopropan-2-yl)acetamide]
23 | < 5.43 | NC(=O)C1CCCN(C(=O)Cn2c(N3CC[C@@H](F)[C@H](N)C3)nc3cc(F)c(F)cc32)C1 (mixture of isomers) [Example 530, 1-(2-(2-((3R,4R)-3-amino-4-fluoropiperidin-1-yl)-5,6-difluoro-1H-benzo[d]imidazol-1-yl)acetyl)piperidine-3-carboxamide]
24 | 7.06 | CC1CCN1C(=O)Cn1c(N2CC[C@@H](F)[C@H](N)C2)nc2ccc(F)cc21 (stereo partly drawn) [Example 677, 2-(2-((3R,4R)-3-amino-4-fluoropiperidin-1-yl)-6-fluoro-1H-benzo[d]imidazol-1-yl)-1-(2-methylazetidin-1-yl)ethan-1-one]
25 | < 5.43 | N[C@@H]1CN(c2nc3ccc(F)cc3n2CC(=O)N[C@H]2CCOC2)CC[C@H]1F [Example 675, 2-(2-((3R,4R)-3-amino-4-fluoropiperidin-1-yl)-6-fluoro-1H-benzo[d]imidazol-1-yl)-N-((S)-tetrahydrofuran-3-yl)acetamide]
26 | 8.82 | N#Cc1ccc(Cn2c(N3CC[C@@H](F)[C@H](N)C3)nc3ccc(C(F)(F)F)nc32)nc1 [Example 453, 6-((2-((3R,4R)-3-amino-4-fluoropiperidin-1-yl)-5-(trifluoromethyl)-3H-imidazo[4,5-b]pyridin-3-yl)methyl)nicotinonitrile]
27 | 7.90 | N[C@@H]1CN(c2nc3ccc(Cl)cc3n2CC(=O)N2CCOCC2)CC[C@H]1F [Example 495, 2-(2-((3R,4R)-3-amino-4-fluoropiperidin-1-yl)-6-chloro-1H-benzo[d]imidazol-1-yl)-1-morpholinoethanone]
28 | 8.27 | CC1CCN1C(=O)Cn1c(N2CC[C@@H](F)[C@H](N)C2)nc2cc(F)c(F)cc21 (stereo partly drawn) [Example 600, 2-(2-((3R,4R)-3-amino-4-fluoropiperidin-1-yl)-5,6-difluoro-1H-benzo[d]imidazol-1-yl)-1-(2-methylazetidin-1-yl)ethanone]
29 | 6.82 | Cc1nnc(Cn2c(N3CC[C@@H](F)[C@H](N)C3)nc3ncc(F)cc32)s1 [Example 574, (3R,4R)-4-fluoro-1-(6-fluoro-1-((5-methyl-1,3,4-thiadiazol-2-yl)methyl)-1H-imidazo[4,5-b]pyridin-2-yl)piperidin-3-amine]
